Like-named read-outs stand apart in the source and are kept apart here.
How the values were obtained:
[1] = target: T1, Ba/F3 Pro B-cell line expressing TEL-human Tyro3 fusion domain (Homo sapiens, UniProt Q06418); format: cell-based; conditions: cell survival, 48 h, CellTiter-Glo
T1 sequence (Q06418 518-790 limits assumed): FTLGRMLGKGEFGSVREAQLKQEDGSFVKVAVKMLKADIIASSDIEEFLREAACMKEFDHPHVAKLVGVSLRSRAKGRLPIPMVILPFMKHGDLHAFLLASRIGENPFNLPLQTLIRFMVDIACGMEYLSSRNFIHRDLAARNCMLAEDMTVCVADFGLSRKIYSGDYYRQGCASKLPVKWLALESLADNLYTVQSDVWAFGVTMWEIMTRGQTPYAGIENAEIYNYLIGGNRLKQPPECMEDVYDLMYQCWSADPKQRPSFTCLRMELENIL

[2] = target: T2, human MERTK cytoplasmic domain (Homo sapiens, UniProt Q12866); assay: biochemical
T2 construct: human MERTK cytoplasmic domain (Carna Biosciences 08-108); purchased Carna Biosciences 08-108
T2 sequence (Q12866 527-999): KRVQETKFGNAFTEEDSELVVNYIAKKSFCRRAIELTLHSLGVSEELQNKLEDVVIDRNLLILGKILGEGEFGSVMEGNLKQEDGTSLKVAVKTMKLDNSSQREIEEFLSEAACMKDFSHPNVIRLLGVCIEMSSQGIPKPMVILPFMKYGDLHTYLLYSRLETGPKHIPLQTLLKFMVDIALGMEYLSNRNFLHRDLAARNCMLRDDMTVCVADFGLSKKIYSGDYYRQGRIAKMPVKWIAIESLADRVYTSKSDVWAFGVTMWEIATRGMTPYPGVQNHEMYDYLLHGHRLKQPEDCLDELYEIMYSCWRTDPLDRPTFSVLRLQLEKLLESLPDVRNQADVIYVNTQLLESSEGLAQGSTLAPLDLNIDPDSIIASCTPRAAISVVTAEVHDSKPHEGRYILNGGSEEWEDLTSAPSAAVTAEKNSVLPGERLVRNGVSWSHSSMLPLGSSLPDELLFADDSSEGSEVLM
Method: Assay 1a—MERTK HTRF KinEASE-TK Assay
The enzymatic reaction was carried out for 30 min at room temperature. 10 μL TK Antibody-Cryptate/Streptavidin-XL665 (Cisbio 610SAXLG) was then added for 60 min, including EDTA containing detection buffer (Cisbio 62SDBRDF) to stop the reaction.

[3] = target: T3, Ba/F3 Pro B-cell line expressing TEL-human MERTK fusion domain (Homo sapiens, UniProt Q12866); format: cell-based
T3 sequence (Q12866 587-858 limits assumed): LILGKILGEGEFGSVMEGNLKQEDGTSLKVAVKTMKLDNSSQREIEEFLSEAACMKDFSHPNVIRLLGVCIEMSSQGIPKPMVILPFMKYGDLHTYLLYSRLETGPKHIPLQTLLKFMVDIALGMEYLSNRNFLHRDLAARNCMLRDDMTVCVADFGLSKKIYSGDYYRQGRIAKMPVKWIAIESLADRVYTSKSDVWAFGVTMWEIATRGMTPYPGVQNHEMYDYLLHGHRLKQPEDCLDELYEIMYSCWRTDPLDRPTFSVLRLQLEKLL
Procedure, shortened: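 Ba/F3 cells dependent on BCR-AXL or TEL-MERTK fusion kinase (IL3-free; IL3 only for control lines) treated with compound 48 h at 37 °C, 0.25% DMSO. Viability by CellTiter-Glo luminescence; IC50 for half-maximal inhibition of survival from 4-parameter variable-slope fit.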

[4] = target: T4, human AXL cytoplasmic domain (Homo sapiens, UniProt P30530); assay: Assay 1b AXL HTRF KinEASE-TK assay; format: biochemical
T4 construct: human AXL cytoplasmic domain (Thermo Fisher A31515); purchased Thermo Fisher A31515
T4 sequence (P30530 473-894 limits assumed): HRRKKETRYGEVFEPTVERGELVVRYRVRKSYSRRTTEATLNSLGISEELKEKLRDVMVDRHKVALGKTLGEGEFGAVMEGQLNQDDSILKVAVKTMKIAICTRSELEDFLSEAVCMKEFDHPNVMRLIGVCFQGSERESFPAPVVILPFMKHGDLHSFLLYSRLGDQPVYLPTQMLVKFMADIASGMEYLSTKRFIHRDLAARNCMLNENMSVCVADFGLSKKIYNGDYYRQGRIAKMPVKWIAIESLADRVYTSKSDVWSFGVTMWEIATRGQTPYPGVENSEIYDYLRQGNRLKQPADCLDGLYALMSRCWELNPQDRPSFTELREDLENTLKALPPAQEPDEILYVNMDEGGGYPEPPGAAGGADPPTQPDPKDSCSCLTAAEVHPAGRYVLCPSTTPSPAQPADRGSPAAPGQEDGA
Procedure, shortened: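 Recombinant cytoplasmic domain (5 nM) in kinase buffer with 5 mM MgCl2, 1 mM MnCl2, 1 mM DTT, 50 nM SEB plus test compounds; reaction 30 min at room temperature. EDTA-containing detection with TK antibody-cryptate/streptavidin-XL665 for 60 min; HTRF 665/620 ratio read. IC50 from 4-parameter logistic fit with variable slope.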

[5] = target: T5, Ba/F3 Pro B-cell line expressing BCR-human AXL kinase domain fusion protein (Homo sapiens, UniProt P30530); assay: Assay 5 Ba/F3 cell survival assay, BCR-Axl; format: cell-based; conditions: read-out: BCR-Axl Ba/F3 IC50, 48 h, CellTiter-Glo
T5 construct: P11274 (Breakpoint cluster region protein)
T5 sequence (P30530 536-807 limits assumed): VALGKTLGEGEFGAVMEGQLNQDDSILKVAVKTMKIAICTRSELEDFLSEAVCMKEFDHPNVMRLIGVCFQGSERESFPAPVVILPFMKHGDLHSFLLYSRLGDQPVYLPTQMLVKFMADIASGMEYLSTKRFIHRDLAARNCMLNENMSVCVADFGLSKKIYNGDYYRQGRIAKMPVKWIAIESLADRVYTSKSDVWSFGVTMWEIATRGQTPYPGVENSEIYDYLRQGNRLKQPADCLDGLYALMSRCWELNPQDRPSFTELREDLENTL
Method: Assay 5—Ba/F3 Cell Survival Assays.
The inhibitory potencies of compounds were assessed in a Ba/F3 cell survival assay, using the Ba/F3 Pro B-cell line, recombinantly expressing a BCR-human AXL kinase domain fusion protein (pACD320/AXL, Advanced Cellular Dynamics Inc), TEL-human MERTK fusion domain (pACD1000/MERTK, Advanced Cellular Dynamics Inc), TEL-human Tyro3 fusion domain (pACD1000/TYRO3, Advanced Cellular Dynamics Inc), or control TEL-none (ACD320, Advanced Cellular Dynamics Inc) BRC-none constructs (ACD1000, Advanced Cellular Dynamics Inc). 10 ng/mL recombinant murine IL3 (R&D, 403-ML-010) was included in the media when propagating negative control TEL-none or BCR-none lines only. […] The final assay DMSO concentration was 0.25%. Compound incubations were conducted for 48 h at 37° C./5% CO2, after which cell plate was equilibrated at room temperature for 20 minutes prior to assessing viability. 15 μl of Promega CellTiter-Glo reagent (G7572) was added to each well for 2 min on an orbital shaker to induce cell lysis.
The plate was then equilibrated for 5 min at room temperature and luminescence read on a BMG Pherastar FSX using the LUM plus optic module. […] Competition curves were then fit to a 4 parameter logistic equation including a variable slope factor to determine the IC50 (compound concentration causing a half-maximal inhibition of cell survival).

[6] = read-out: TEL-MERTK Ba/F3 IC50; cell survival, 48 h, CellTiter-Glo
[7] = 30 uM ATP, read-out: Assay 1a Mer IC50 30 uM ATP
[8] = cell survival, 48 h, CellTiter-Glo; read-out: TEL-MERTK Ba/F3 IC50

Row | SMILES | IC50 [1] [nM] | IC50 [2] [nM] | IC50 [3, 6] [nM] | IC50 [4] [nM] | IC50 [5] [nM] | IC50 [2, 7] [nM] | IC50 [3, 8] [nM] | IC50 ([4]; # 1 μM ATP used in assay, read-out: Assay 1b Axl IC50) [nM]
1 | CC(C)n1cc(C(=O)Nc2ccc(Oc3ccnc4cnc(N5CCN(C6COC6)CC5)cc34)cn2)c(=O)n(-c2ccc(F)cc2)c1=O [Example 20.1, 3-(4-fluorophenyl)-1-isopropyl-N-[5-[[6-[4-(oxetan-3-yl)piperazin-1-yl]-1,7-naphthyridin-4-yl]oxy]-2-pyridyl]-2,4-dioxo-pyrimidine-5-carboxamide] | 452 | 5 | 27 | 5 | 15 | – | – | –
2 | CC(C)n1cc(C(=O)Nc2ccc(Oc3ccnc4cnc(N5CCN(C6COC6)CC5)cc34)cn2)c(=O)c(-c2ccc(F)cc2)c1 [Example 20.2, 5-(4-fluorophenyl)-1-isopropyl-N-[5-[[6-[4-(oxetan-3-yl)piperazin-1-yl]-1,7-naphthyridin-4-yl]oxy]-2-pyridyl]-4-oxo-pyridine-3-carboxamide] | 220 | – | – | 7 | 2 | 1 | 5 | –
3 | O=C(Nc1ccc(Oc2ccnc3cnc(C4CCNC4)cc23)cn1)c1cccn(-c2ccc(F)cc2)c1=O (stereo not drawn) [Example 21, 1-(4-fluorophenyl)-2-oxo-N-[5-[(6-pyrrolidin-3-yl-1,7-naphthyridin-4-yl)oxy]-2-pyridyl]pyridine-3-carboxamide] | 2390 | – | – | 247 | 203 | 57 | 217 | –
4 | O=C(Nc1ccc(Oc2ccnc3cnc(C4CCNCC4)cc23)cn1)c1cccn(-c2ccc(F)cc2)c1=O [Example 21.1, 1-(4-fluorophenyl)-2-oxo-N-[5-[[6-(4-piperidyl)-1,7-naphthyridin-4-yl]oxy]-2-pyridyl]pyridine-3-carboxamide] | 861 | – | – | 46 | 46 | 9 | 35 | –
5 | CC(C)C(=O)N1CCC(c2cc3c(Oc4ccc(NC(=O)c5cccn(-c6ccc(F)cc6)c5=O)nc4)ccnc3cn2)CC1 [Example 22, 1-(4-fluorophenyl)-N-[5-[[6-[1-(2-methylpropanoyl)-4-piperidyl]-1,7-naphthyridin-4-yl]oxy]-2-pyridyl]-2-oxo-pyridine-3-carboxamide] | > 2500 | 1 | 10 | 5 | 10 | – | – | –
6 | CN1CCC(Oc2cc3c(Oc4ccc(NC(=O)c5cccn(-c6ccc(F)cc6)c5=O)nc4)ccnc3cn2)CC1 [Example 24, 1-(4-fluorophenyl)-N-[5-[[6-[(1-methyl-4-piperidyl)oxy]-1,7-naphthyridin-4-yl]oxy]-2-pyridyl]-2-oxo-pyridine-3-carboxamide] | 37 | 6 | 6 | 21 | 6 | – | – | –
7 | Cc1cc(NC(=O)c2cccn(-c3ccc(F)cc3)c2=O)ncc1Oc1ccnc2cnc(C(=O)NC3CCN(C)CC3)cc12 [Example 25, 4-[[6-[[1-(4-fluorophenyl)-2-oxo-pyridine-3-carbonyl]amino]-4-methyl-3-pyridyl]oxy]-N-(1-methyl-4-piperidyl)-1,7-naphthyridine-6-carboxamide] | 91 | – | – | 76 | 27 | 29 | 54 | –
8 | Cc1nc(NC(=O)c2cccn(-c3ccc(F)cc3)c2=O)ccc1Oc1ccnc2cnc(C(=O)NC3CCN(C)CC3)cc12 [Example 26, 4-[[6-[[1-(4-fluorophenyl)-2-oxo-pyridine-3-carbonyl]amino]-2-methyl-3-pyridyl]oxy]-N-(1-methyl-4-piperidyl)-1,7-naphthyridine-6-carboxamide] | 1420 | – | – | 360 | 83 | 19 | 55 | –
9 | CC(C)n1cc(C(=O)Nc2ccc(Oc3ccnc4cnc(C(=O)NC5CCN(C(=O)OC(C)(C)C)CC5)cc34)cn2)c(=O)n(-c2ccc(F)cc2)c1=O [Example 27.1, tert-butyl 4-[[4-[[6-[[3-(4-fluorophenyl)-1-isopropyl-2,4-dioxo-pyrimidine-5-carbonyl]amino]-3-pyridyl]oxy]-1,7-naphthyridine-6-carbonyl]amino]piperidine-1-carboxylate] | 881 | – | – | 3 | 15 | 11 | 67 | –
10 | CC(C)n1cc(C(=O)Nc2ccc(Oc3ccnc4cnc(C(=O)NC5CC6CCC(C5)N6C)cc34)cn2)c(=O)n(-c2ccc(F)cc2)c1=O (stereo not drawn) [Example 27.2, 4-[[6-[[3-(4-fluorophenyl)-1-isopropyl-2,4-dioxo-pyrimidine-5-carbonyl]amino]-3-pyridyl]oxy]-N-(8-methyl-8-azabicyclo[3.2.1]octan-3-yl)-1,7-naphthyridine-6-carboxamide] | 376 | – | – | – | 13 | 17 | 49 | 4
11 | CC(C)n1cc(C(=O)Nc2ccc(Oc3ccnc4cnc(C(=O)NCCN(C)C)cc34)cn2)c(=O)n(-c2ccc(F)cc2)c1=O [Example 27.3, N-[2-(dimethylamino)ethyl]-4-[[6-[[3-(4-fluorophenyl)-1-isopropyl-2,4-dioxo-pyrimidine-5-carbonyl]amino]-3-pyridyl]oxy]-1,7-naphthyridine-6-carboxamide] | 631 | – | – | 6 | 21 | 31 | 44 | –
12 | Cc1cc(NC(=O)c2cccn(-c3ccccc3)c2=O)ccc1Oc1ccnc2cnc(C(=O)NC3CCN(C)CC3)cc12 [Example 34, 4-[2-Methyl-4-[(2-oxo-1-phenyl-pyridine-3-carbonyl)amino]phenoxy]-N-(1-methyl-4-piperidyl)-1,7-naphthyridine-6-carboxamide] | 128 | – | – | 296 | 73 | 43 | 144 | –

From US20230203029A1 (priority 2020, published 2023)
